The subject of the assay is MCH receptors. In words: MCH receptor activity class (method not given).
[1] abbreviates: class by percent of control at 10^-7 M or IC50.
The mark [2] stands for this setting: MCH receptor, class by percent of control at 10^-7 M or IC50.
Setting [3] is: class by percent of control at 10^−7 M or IC50.
Setting [4] is: activity class per percent of control at 10^-7 M or IC50.
Setting [5] is: MCH receptor activity class 1-3 (percent of control at 10^-7 M or IC50).
Where [6] appears, read: activity class 1-3: percent of control at 10^-7 M or IC50.

Where two headings read alike, the source gives them in different places.

Turning to `CN(C)c1ccnc(N[C@H]2CC[C@@H](NC(=O)c3cc(F)c(Cl)cc3Cl)CC2)n1` [compound 257], the class under setting [1] was 3 (Class 3 The value of percent of control at 10^−7 M was more than 60% or the value of IC50 was more than 200 nM.).
As for `CN(C)c1cc(N[C@H]2CC[C@@H](CNC(=O)c3cc(F)cc(F)c3)CC2)nc2ccccc12` [compound 161, N-[(cis-4-{[4-(dimethylamino)quinolin-2-yl]amino}cyclohexyl)methyl]-3,5-difluorobenzamide], the class under setting [2] is on record as 3 (Class 3 The value of percent of control at 10^−7 M was more than 60% or the value of IC50 was more than 200 nM.).
Turning to `Cc1ccc(CNC[C@H]2CC[C@@H](Nc3cc(N(C)C)c4ccccc4n3)CC2)s1` [compound 1180], the class under setting [1] was 3 (Class 3 The value of percent of control at 10^−7 M was more than 60% or the value of IC50 was more than 200 nM.).
Consider `Cc1cnc(N[C@H]2CC[C@@H](NC(=O)c3cccc(C(F)(F)F)c3)CC2)nc1N(C)C` [compound 2896, N-(cis-4-{[4-(dimethylamino)-5-methylpyrimidin-2-yl]amino}cyclohexyl)-3-(trifluoromethyl)benzamide], for which, under setting [3], the class is recorded as 1 (Class 1: The value of percent of control at 10^−7 M was less than 40% or the value of IC50 was less than 50 nM.).
For `COc1cc(CNC[C@H]2CC[C@@H](Nc3cc(N(C)C)c4ccccc4n3)CC2)cc(OC)c1O` [compound 1133], the class under setting [4] was 3 (Class 3 The value of percent of control at 10^−7 M was more than 60% or the value of IC50 was more than 200 nM.).
As to `Cc1cccc(CNC(=O)[C@H]2CC[C@@H](Nc3nc(C)cc(N(C)C)n3)CC2)c1` [compound 2822, cis-4-{[4-(dimethylamino)-6-methylpyrimidin-2-yl]amino}-N-(3-methylbenzyl)cyclohexanecarboxamide], the class under setting [3] was 1 (Class 1: The value of percent of control at 10^−7 M was less than 40% or the value of IC50 was less than 50 nM.).
For the molecule `CN(C)c1cc(N[C@H]2CC[C@@H](NC(=O)c3cccc(F)c3)CC2)nc2ccccc12` [compound 105, N-(cis-4-{[4-(dimethylamino)quinolin-2-yl]amino}cyclohexyl)-3-fluorobenzamide], the class under setting [2] is on record as 2 (Class 2: The value of percent of control at 10^−7 M was from 40% to 60% or the value of IC′50 was from 50 nM to 200 nM.).
For `CN(C)c1ccnc(N[C@H]2CC[C@@H](CNC(=O)c3ccc(C#N)cc3)CC2)n1` [compound 422], the class (class 1-3 by percent of control at 10^-7 M or IC50) is 3 (Class 3 The value of percent of control at 10^−7 M was more than 60% or the value of IC50 was more than 200 nM.).
On to `CCOC(=O)c1cccc(NC(=S)N[C@H]2CC[C@@H](Nc3nccc(N(C)C)n3)CC2)c1` [compound 2338], for which the class under setting [5] is given as 3 (Class 3 The value of percent of control at 10^−7 M was more than 60% or the value of IC50 was more than 200 nM.).
Consider `CN(C)c1nc(N[C@H]2CC[C@@H](NC(=S)Nc3ccc(Cl)c(C(F)(F)F)c3)CC2)nc2c1CCCC2` [compound 1992], for which the class under setting [2] is recorded as 3 (Class 3 The value of percent of control at 10^−7 M was more than 60% or the value of IC50 was more than 200 nM.).
As for `CN(C)c1ccnc(N[C@H]2CC[C@@H](CNC(=O)Nc3ccccc3C(C)(C)C)CC2)n1` [compound 2430, N-(2-tert-butylphenyl)-N′-[(cis-4-{[4-(dimethylamino)pyrimidin-2-yl]amino}cyclohexyl)methyl]urea], under setting [5], the class is 1 (Class 1: The value of percent of control at 10^−7 M was less than 40% or the value of IC50 was less than 50 nM.).
With `CN(C)c1cc(N[C@H]2CC[C@@H](CNC(=O)c3c(F)ccc(F)c3F)CC2)nc2ccccc12` [compound 227], the class under setting [1] is 3 (Class 3 The value of percent of control at 10^−7 M was more than 60% or the value of IC50 was more than 200 nM.).
The same measure, in the same setting: the result for `COc1cccc(CN[C@H]2CC[C@@H](Nc3nccc(N(C)C)n3)CC2)c1` [compound 1224] reads 3 (Class 3 The value of percent of control at 10^−7 M was more than 60% or the value of IC50 was more than 200 nM.).
Regarding `Cc1c(Cl)cccc1NC(=O)NC[C@H]1CC[C@@H](Nc2cc(N(C)C)c3ccccc3n2)CC1` [compound 2385], the class under setting [5] is recorded as 3 (Class 3 The value of percent of control at 10^−7 M was more than 60% or the value of IC50 was more than 200 nM.).
Regarding `COc1cc(OC)cc(C(=O)N[C@H]2CC[C@@H](Nc3nc(C)cc(N(C)C)n3)CC2)c1` [compound 2959, N-(cis-4-{[4-(dimethylamino)-6-methylpyrimidin-2-yl]amino}cyclohexyl)-3,5-dimethoxybenzamide], the class under setting [3] is 1 (Class 1: The value of percent of control at 10^−7 M was less than 40% or the value of IC50 was less than 50 nM.).
On to `CCOC(=O)NC[C@H]1CC[C@@H](Nc2cc(N(C)C)c3ccccc3n2)CC1` [compound 1567], for which the class under setting [6] is given as 3 (Class 3 The value of percent of control at 10^−7 M was more than 60% or the value of IC50 was more than 200 nM.).
As to `CN(C)c1cc(N[C@H]2CC[C@@H](NC(=O)C(CC(=O)c3ccc(C(C)(C)C)cc3)c3cn(C)c4ccccc34)CC2)nc2ccccc12` (relative stereo) [compound 721], under setting [1], the class is 3 (Class 3 The value of percent of control at 10^−7 M was more than 60% or the value of IC50 was more than 200 nM.).
For the molecule `CN(C)c1nc(N[C@H]2CC[C@@H](NC(=S)NCc3ccc4c(c3)OCO4)CC2)nc2c1CCCC2` [compound 1946], the class under setting [2] was 3 (Class 3 The value of percent of control at 10^−7 M was more than 60% or the value of IC50 was more than 200 nM.).
As for `COc1cc(COC(=O)NC2CCC(Nc3cc(N(C)C)c4ccccc4n3)CC2)c([N+](=O)[O-])cc1OC` (centres unmarked) [compound 1541, “[4-(4-Dimethylamino-quinolin-2-ylamino)-cyclohexyl]-carbamic acid 4,5-dimethoxy-2-nitro-benzyl ester], the class under setting [6] is listed as 2 (Class 2: The value of percent of control at 10^−7 M was from 40% to 60% or the value of IC′50 was from 50 nM to 200 nM.).
For `CN(C)c1nc(N[C@H]2CC[C@@H](CNCc3cc(F)cc(C(F)(F)F)c3)CC2)nc2c1CCCC2` [compound 1440], the class under setting [1] is 3 (Class 3 The value of percent of control at 10^−7 M was more than 60% or the value of IC50 was more than 200 nM.).
Consider `Cc1cnc(N[C@H]2CC[C@@H](NC(=O)c3cccc(C#N)c3)CC2)nc1N(C)C` [compound 2908, 3-cyano-N-(cis-4-{[4-(dimethylamino)-5-methylpyrimidin-2-yl]amino}cyclohexyl)benzamide], for which the class under setting [3] is reported as 1 (Class 1: The value of percent of control at 10^−7 M was less than 40% or the value of IC50 was less than 50 nM.).
Still for that read-out and setting: under `CN(C)c1nc(N[C@H]2CC[C@@H](NC(=O)c3ccc(F)c(F)c3)CC2)ncc1C(F)(F)F` [compound 3006] stands 3 (Class 3 The value of percent of control at 10^−7 M was more than 60% or the value of IC50 was more than 200 nM.).
In the case of `CN(C)c1ccnc(N[C@H]2CC[C@@H](CNC(=O)Nc3ccc(F)c(Cl)c3)CC2)n1` [compound 2450, N-(3-chloro-4-fluorophenyl)-N′-[(cis-4-{[4-(dimethylamino)pyrimidin-2-yl]amino}cyclohexyl)methyl]urea], the class under setting [5] was 1 (Class 1: The value of percent of control at 10^−7 M was less than 40% or the value of IC50 was less than 50 nM.).
Consider `CN(C)c1nc(N[C@H]2CC[C@@H](NC(=O)OCC(Cl)(Cl)Cl)CC2)nc2c1CCCC2` [compound 1598], for which the class under setting [6] is reported as 3 (Class 3 The value of percent of control at 10^−7 M was more than 60% or the value of IC50 was more than 200 nM.).
`Cc1cc(N(C)C)nc(N[C@H]2CC[C@@H](C(=O)NCc3cc(C(F)(F)F)cc(C(F)(F)F)c3)CC2)n1` [Example 2578, cis-N-[3,5-bis(trifluoromethyl)benzyl]-4-{[4-(dimethylamino)-6-methylpyrimidin-2-yl]amino}cyclohexanecarboxamide]: the class was 1.
In the case of `CN(C)c1nc(N[C@H]2CC[C@@H](NC(=O)Nc3ccc(Br)cc3F)CC2)nc2c1CCCC2` [compound 1884], the class under setting [1] is recorded as 3 (Class 3 The value of percent of control at 10^−7 M was more than 60% or the value of IC50 was more than 200 nM.).
With `CCOc1ccccc1C(=O)NC[C@H]1CC[C@@H](Nc2cc(N(C)C)c3ccccc3n2)CC1` [compound 199], the class under setting [2] is on record as 3 (Class 3 The value of percent of control at 10^−7 M was more than 60% or the value of IC50 was more than 200 nM.).
For `CN(C)c1nc(N[C@H]2CC[C@@H](CNC(=O)c3cncc(Br)c3)CC2)nc2c1CCCC2` [compound 650], the class under setting [1] is 3 (Class 3 The value of percent of control at 10^−7 M was more than 60% or the value of IC50 was more than 200 nM.).
Take `CCc1cccc2c(C(CC(=O)c3ccc(C(C)(C)C)cc3)C(=O)N[C@H]3CC[C@@H](Nc4nc5c(c(N(C)C)n4)CCCC5)CC3)c[nH]c12` (relative stereo) [compound 996]: under setting [4], the class is reported as 1 (Class 1: The value of percent of control at 10^−7 M was less than 40% or the value of IC50 was less than 50 nM.).
Regarding `Cc1cc(C)c(C(=O)C(=O)N[C@H]2CC[C@@H](Nc3cc(N(C)C)c4ccccc4n3)CC2)c(C)c1` [compound 775, N-(cis-4-{[4-(dimethylamino)quinolin-2-yl]amino}cyclohexyl)-2-mesityl-2-oxoacetamide], the class under setting [1] is given as 2 (Class 2: The value of percent of control at 10^−7 M was from 40% to 60% or the value of IC′50 was from 50 nM to 200 nM.).
Same read-out and setting: the result for `CN(C)c1ccnc(N[C@H]2CC[C@@H](NC(=O)c3cccnc3Oc3ccccc3)CC2)n1` [compound 353, N-(cis-4-{[4-(dimethylamino)pyrimidin-2-yl]amino}cyclohexyl)-2-phenoxynicotinamide] reads 2 (Class 2: The value of percent of control at 10^−7 M was from 40% to 60% or the value of IC′50 was from 50 nM to 200 nM.).
Turning to `Cc1cnc(N[C@H]2CC[C@@H](CNC(=O)c3ccc(F)c(F)c3)CC2)nc1N(C)C` [compound 2692, N-[(cis-4-{[4-(dimethylamino)-5-methylpyrimidin-2-yl]amino}cyclohexyl)methyl]-3,4-difluorobenzamide], the class under setting [3] was 2 (Class 2: The value of percent of control at 10^−7 M was from 40% to 60% or the value of IC′50 was from 50 nM to 200 nM.).

The values above are taken from patent US20050197350A1, “Novel quinoline, tetrahydroquinazoline, and pyrimidine derivatives and methods of treatment related to the use thereof” (TAISHO PHARMACEUTICAL CO., LTD., priority 2003, published 2005).
